Holding throughout (assay): Kinase panel
In one assay the target is T1, PKCα(h) (Homo sapiens, UniProt P17252).
T1 construct: purchased Millipore KinaseProfiler
The format is biochemical.

For the next assay, the target named is T2, EphB4(h) (Homo sapiens, UniProt P54760).
T2 construct: purchased Millipore KinaseProfiler
T2 sequence (P54760 16-987): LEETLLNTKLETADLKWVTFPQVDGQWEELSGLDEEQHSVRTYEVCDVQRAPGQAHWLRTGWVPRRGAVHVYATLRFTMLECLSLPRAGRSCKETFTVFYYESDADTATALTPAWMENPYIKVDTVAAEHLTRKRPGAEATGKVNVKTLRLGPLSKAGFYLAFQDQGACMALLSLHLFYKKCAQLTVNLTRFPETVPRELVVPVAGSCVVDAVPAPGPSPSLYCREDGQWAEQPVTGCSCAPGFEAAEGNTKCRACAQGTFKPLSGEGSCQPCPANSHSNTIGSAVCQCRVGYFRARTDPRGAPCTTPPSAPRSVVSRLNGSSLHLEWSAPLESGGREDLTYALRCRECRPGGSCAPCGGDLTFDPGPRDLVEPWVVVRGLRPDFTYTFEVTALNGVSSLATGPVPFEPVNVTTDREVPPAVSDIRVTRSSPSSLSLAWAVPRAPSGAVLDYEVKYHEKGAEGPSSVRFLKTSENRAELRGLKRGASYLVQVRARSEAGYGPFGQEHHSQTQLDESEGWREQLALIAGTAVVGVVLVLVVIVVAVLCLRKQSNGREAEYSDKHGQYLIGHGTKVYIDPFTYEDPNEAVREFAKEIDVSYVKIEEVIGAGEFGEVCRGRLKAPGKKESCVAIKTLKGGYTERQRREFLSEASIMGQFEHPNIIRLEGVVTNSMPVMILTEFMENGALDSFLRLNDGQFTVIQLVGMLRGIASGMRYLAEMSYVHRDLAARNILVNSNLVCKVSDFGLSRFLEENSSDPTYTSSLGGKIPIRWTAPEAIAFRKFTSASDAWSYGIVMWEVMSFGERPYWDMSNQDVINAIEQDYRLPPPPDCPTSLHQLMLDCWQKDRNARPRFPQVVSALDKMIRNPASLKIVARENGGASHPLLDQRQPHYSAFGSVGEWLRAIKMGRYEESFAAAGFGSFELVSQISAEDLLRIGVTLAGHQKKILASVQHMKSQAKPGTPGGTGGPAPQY
The format is biochemical.

For a further assay, the target named is T3, BrSK1(h) (Homo sapiens, UniProt Q8TDC3).
T3 construct: purchased Millipore KinaseProfiler
T3 sequence (Q8TDC3 1-778): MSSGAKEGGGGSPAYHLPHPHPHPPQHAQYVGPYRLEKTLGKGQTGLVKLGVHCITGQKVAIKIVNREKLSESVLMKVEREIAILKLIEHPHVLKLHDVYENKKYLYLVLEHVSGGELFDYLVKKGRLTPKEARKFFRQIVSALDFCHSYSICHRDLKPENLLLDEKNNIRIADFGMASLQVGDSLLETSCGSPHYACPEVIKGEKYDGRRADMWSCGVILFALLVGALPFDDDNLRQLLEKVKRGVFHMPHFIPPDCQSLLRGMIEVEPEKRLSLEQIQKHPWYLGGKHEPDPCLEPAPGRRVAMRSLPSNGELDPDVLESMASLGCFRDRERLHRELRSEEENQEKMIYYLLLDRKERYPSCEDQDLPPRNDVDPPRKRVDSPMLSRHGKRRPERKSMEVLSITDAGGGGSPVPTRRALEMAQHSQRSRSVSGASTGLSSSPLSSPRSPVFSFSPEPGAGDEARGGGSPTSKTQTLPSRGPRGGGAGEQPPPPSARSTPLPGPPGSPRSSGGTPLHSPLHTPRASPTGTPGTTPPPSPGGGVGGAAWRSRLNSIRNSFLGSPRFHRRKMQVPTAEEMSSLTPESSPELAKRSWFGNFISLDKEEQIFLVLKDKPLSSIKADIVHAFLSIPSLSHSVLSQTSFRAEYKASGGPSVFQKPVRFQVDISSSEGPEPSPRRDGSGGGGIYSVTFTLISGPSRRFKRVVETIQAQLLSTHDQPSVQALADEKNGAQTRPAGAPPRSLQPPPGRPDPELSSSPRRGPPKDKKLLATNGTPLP
The format is biochemical.

The subject of a further assay is AMPK(r). The format is biochemical, rat.
A further assay has as its target T4, PKG1α(h) (Homo sapiens, UniProt Q13976).
T4 construct: purchased Millipore KinaseProfiler
T4 sequence (Q13976 1-671): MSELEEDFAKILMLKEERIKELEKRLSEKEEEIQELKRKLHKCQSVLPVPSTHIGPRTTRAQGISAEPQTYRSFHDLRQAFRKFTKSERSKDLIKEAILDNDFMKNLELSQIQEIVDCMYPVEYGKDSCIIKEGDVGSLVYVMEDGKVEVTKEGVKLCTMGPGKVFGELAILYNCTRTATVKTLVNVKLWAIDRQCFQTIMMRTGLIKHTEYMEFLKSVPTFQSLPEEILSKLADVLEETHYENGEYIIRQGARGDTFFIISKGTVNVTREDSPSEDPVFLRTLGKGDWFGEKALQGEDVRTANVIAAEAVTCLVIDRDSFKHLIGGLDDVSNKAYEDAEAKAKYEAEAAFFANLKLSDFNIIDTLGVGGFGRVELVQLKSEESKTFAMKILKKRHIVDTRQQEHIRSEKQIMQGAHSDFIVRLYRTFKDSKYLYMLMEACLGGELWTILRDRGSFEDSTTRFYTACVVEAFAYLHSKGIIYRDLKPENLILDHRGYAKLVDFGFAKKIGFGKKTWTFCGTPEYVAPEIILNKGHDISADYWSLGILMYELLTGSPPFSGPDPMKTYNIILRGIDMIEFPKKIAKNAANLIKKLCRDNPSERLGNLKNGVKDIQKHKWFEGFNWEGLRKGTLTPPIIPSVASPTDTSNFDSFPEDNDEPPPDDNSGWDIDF
It counts as biochemical.

The target of the next assay is T5, Syk(h) (Homo sapiens, UniProt P43405).
T5 construct: purchased Millipore KinaseProfiler
It counts as biochemical.

From paper PMC4076210, “Discovery of Novel AKT Inhibitors with Enhanced Anti-Tumor Effects in Combination with the MEK Inhibitor” (PLoS ONE, 2014) come the findings set out here.

Broadly, the inhibition is the drop in the measured response relative to a control, in per cent. Broadly, the % Inhibition is the change of the read-out against control, counted positive when it falls. A lower % Inhibition goes with a response near the control.

Each structure is given as a SMILES string. Read-outs that look alike come from different tables or passages of the source.

`Cn1ncc(Cl)c1-c1cc(C(=O)N[C@H](CN)Cc2ccc(F)c(F)c2)oc1Cl` [GSK2141795]: the inhibition at 0.5 µM on PKCα(h) (0.5 µM, read-out: % Inhibition) was 10%; at EphB4(h) (0.5 µM, read-out: % Inhibition), 5%; at BrSK1(h) (0.5 µM, read-out: % Inhibition) it was -2%; on PKG1α(h) (0.5 µM, read-out: % Inhibition) it was 100%; on Syk(h) (0.5 µM, read-out: % Inhibition), -18%. For the same molecule, the inhibition at 10 µM on PKCα(h) (10 µM, read-out: % Inhibition) is 62%; on EphB4(h) (10 µM, read-out: % Inhibition) it was 5%; on BrSK1(h) (10 µM, read-out: % Inhibition) it was 7%; at PKG1α(h) (10 µM, read-out: % Inhibition), 99%; at Syk(h) (10 µM, read-out: % Inhibition), 35%. Further, the results for the “% Inhibition” value with AMPK(r) (0.5 µM) and with AMPK(r) (10 µM) were 10% and 76%, respectively.

Turning to `Cn1ncc(Cl)c1-c1cc(C(=O)N[C@H](CN)Cc2cccc(F)c2)sc1Cl` [GSK2110183], the inhibition at 0.5 µM against PKCα(h) was 2%; against EphB4(h) it was 0%; on BrSK1(h), -3%; against PKG1α(h), 99%; against Syk(h), 3%. Moreover, the inhibition at 10 µM was determined as 40% at PKCα(h); 10% on EphB4(h); 10% against BrSK1(h); 99% against PKG1α(h); 39% against Syk(h). In addition, the figures for the “% Inhibition” value with AMPK(r) (0.5 µM) and in the assay with AMPK(r) (10 µM) were 3% and 56%, respectively.
